Strand notation (5' to 3'): a small letter for the sugar, then the base; units joined by * are phosphorothioate-linked, units joined directly phosphodiester-linked; [ ] holds rarer units or linkages, { } end groups; capitals alone tell only the bases. e = 2'-O-(2-methoxyethyl) (MOE); l = locked nucleic acid (LNA); [5mC] = 5-methylcytosine; d = 2'-deoxy (DNA)
Test system: human ABCB11 mRNA
Assay: ASO treatment of primary human hepatocytes (PHH), ABCB11 mRNA by RT-qPCR normalized to B2M
Format: cell-based
Details: primary human hepatocytes; for ABCB11 mRNA FC (5 μM ASO vs. UNT): normalized to untreated PHHs (UNT); for ABCB11 FC mRNA (5 μM ASO vs. untreated): 5 μM ASO with PO-modifications, normalized to untreated hepatocytes
Experimental: Primary human hepatocytes (PHH) were thawed using Lonza Human Cryopreserved Hepatocyte Thawing Medium and plated in 96-well collagen-coated plates (5.5-6.0×10^4 cells per well). Four hours later, the media was replaced with sterile-filtered QualGro™ Hepatocyte Culture Medium (BioIVT) containing antibiotic supplement, 0.3 mg/ml Matrigel® matrix (Corning®), and ASO at the desired concentration (e.g., 1.25 μM, 2.5 μM, 5 μM, or 10 μM). After 72 hrs., cells were harvested by aspirating media, washing once with phosphate-buffered saline (PBS), and lysed with 150 μl of Buffer RLT lysis buffer (Qiagen®). Plates were frozen at-80° C. during cell lysis. After thawing, total RNA was isolated using the Qiagen RNEasy kit as instructed by manufacturer. cDNA (random-primed) was synthesized from 10 μl of RNA using the LifeTech High Capacity cDNA Reverse Transcription kit. 2 μl of cDNA was used for reverse transcription-quantitative PCR (RT-qPCR) analyses using standard Taqman” reagents from Applied Biosystems™ to measure ABCB11 and CYP7A1 gene expression. Gene expression data was normalized to the housekeeper gene, beta-2-microglobulin (B2M).
To assess the ability of ASOs targeting ABCB11 regRNAs to modulate the expression of human ABCB11, 195 ASOs targeting the human ABCB11 regRNAs were synthesized. These initial ASOs were screened in PHHs at 5 μM to determine their efficacy in increasing human ABCB11 mRNA using quantitative PCR. This initial screen identified 10 ASOs that induced increased expression of ABCB11 mRNA by more than 1.5-fold (as compared to untreated PHHs).

## CO-4055 (antisense eT*eT*eG*eA*eA*e[5mC]*e[5mC]*eT*eT*eT*eA*eG*eA*eA*eA*eA*eT*e[5mC]*eG*eT)
  ABCB11 mRNA FC (5 μM ASO vs. UNT): 1.287 fold change

## CO-6983 (antisense eA*eG*eA*eA*eG*eA*e[5mC]*eA*eG*eA*eA*eG*eT*eG*eA*eG*eG*e[5mC]*eA*eT)
  ABCB11 mRNA FC (5 μM ASO vs. UNT): 1.065 fold change

## CO-11230 (antisense eG*eTlG*eG*eAlG*e[5mC]*eAlA*eA*e[5mC]lT*eA*eGlG*e[5mC]*eAl[5mC]*eT*eG)
  ABCB11 FC mRNA (5 μM ASO vs. untreated): 1.63 fold change

## CO-4039 (antisense eG*eG*eT*eT*eA*eT*eT*eG*e[5mC]*eT*e[5mC]*eT*eG*eA*eG*eT*eA*eT*eG*eT)
  ABCB11 mRNA FC (5 μM ASO vs. UNT): 1.022 fold change

## CO-11229 (antisense eG*eTlG*eG*eA*lGe[5mC]*eA*lA*eAe[5mC]*lT*eA*eGlG*e[5mC]*eA*l[5mC]eT*eG)
  ABCB11 FC mRNA (5 μM ASO vs. untreated): 2.83 fold change

## CO-6671 (antisense eT*eT*e[5mC]*eT*eG*eT*eA*eG*eT*eT*eT*eA*eG*eT*eT*eG*eA*e[5mC]*eT*eG)
  ABCB11 mRNA FC (5 μM ASO vs. UNT): 1.163 fold change

## CO-7018 (antisense eA*eA*eG*eT*eG*eA*eG*eG*e[5mC]*eA*eT*e[5mC]*eA*eG*eG*eT*eA*eA*eG*eT*eT*e[5mC]*e[5mC]*eT)
  ABCB11 mRNA FC (5 μM ASO vs. UNT): 1.249 fold change

## CO-7096 (eA*e[5mC]*e[5mC]*e[5mC]*e[5mC]*l[5mC]*e[5mC]*eT*e[5mC]*eA*l[5mC]*e[5mC]*eT*eT*eG*lG*eT*eT*e[5mC]*e[5mC]; antisense)
  ABCB11 mRNA FC (5 μM ASO vs. UNT): 1.157 fold change

## CO-7149: derivative ASO with additional chemical modifications based on parent ASO CO-4517 (antisense e[5mC]*e[5mC]*eT*eT*eA*eG*eG*eA*eG*eG*eA*eT*eT*eA*eT*eT*eT*eA*eA*e[5mC]*e[5mC]*eT)
  ABCB11 mRNA FC (5 μM ASO vs. UNT): 1.719 fold change

## CO-6969 (antisense eT*eG*eT*eG*eG*eA*eT*eG*eT*eA*eG*eA*eT*eG*eA*eA*eT*eG*eG*e[5mC])
  ABCB11 mRNA FC (5 μM ASO vs. UNT): 1.266 fold change

## CO-7037 (antisense e[5mC]*eT*eG*eT*eA*e[5mC]*eA*eT*eT*eT*eA*eG*eA*eG*eA*e[5mC]*eA*eA*eA*eG)
  ABCB11 mRNA FC (5 μM ASO vs. UNT): 1.136 fold change

## CO-4491 (antisense eG*eA*eG*eG*eT*eT*eG*eA*e[5mC]*eA*eA*eA*eT*eA*eG*eG*eT*eG*eT*eG)
  ABCB11 mRNA FC (5 μM ASO vs. UNT): 1.101 fold change

## CO-4489 (antisense e[5mC]*eA*e[5mC]*eA*eG*eA*eG*eT*eG*e[5mC]*e[5mC]*eA*eA*eG*eG*eA*eG*eT*eT*eA)
  ABCB11 mRNA FC (5 μM ASO vs. UNT): 1.083 fold change

## CO-7201 (eA*eG*eG*eT*eG*dG*dA*eG*d[5mC]*dA*eA*dA*d[5mC]*eT*dA*dG*eG*d[5mC]*dA*e[5mC]*eT*eG*eA*eG; antisense)
  ABCB11 mRNA FC (5 μM ASO vs. UNT): 1.253 fold change

## CO-6976 (antisense eT*e[5mC]*e[5mC]*eT*eG*eA*eA*eG*eT*eG*eG*eA*eG*eG*eT*eG*eG*eT*eG*eG)
  ABCB11 mRNA FC (5 μM ASO vs. UNT): 1.373 fold change

## CO-7179: derivative ASO with additional chemical modifications based on parent ASO CO-4529 (antisense eG*eT*lG*eG*lA*eG*l[5mC]*eA*lA*eA*l[5mC]*eT*lA*eG*lG*e[5mC]*lA*e[5mC]*eT*eG)
  ABCB11 mRNA FC (5 μM ASO vs. UNT): 2.344 fold change

## CO-6672 (antisense eA*eG*eG*eA*e[5mC]*eA*e[5mC]*eA*eA*eT*eT*eT*e[5mC]*eT*eG*eT*eA*eG*eT*eT)
  ABCB11 mRNA FC (5 μM ASO vs. UNT): 1.391 fold change

## CO-7170 (antisense eT*e[5mC]*eT*eT*eA*eT*eT*eT*eG*eG*e[5mC]*eG*eT*eT*eA*eT*eT*eA*eA*eT)
  ABCB11 mRNA FC (5 μM ASO vs. UNT): 1.477 fold change

## CO-4494 (antisense eG*e[5mC]*eA*eG*eG*eA*eT*eG*eA*eA*eG*eT*eT*eT*eA*e[5mC]*eA*eA*eG*eG)
  ABCB11 mRNA FC (5 μM ASO vs. UNT): 1.12 fold change

## CO-3991 (antisense eG*eG*eG*eA*eT*eG*eA*e[5mC]eT*e[5mC]*e[5mC]eT*eA*eA*eA*eA*eA*eT*eG*eG)
  ABCB11 mRNA FC (5 μM ASO vs. UNT): 1.614 fold change

## CO-11227 (antisense eG*eT*lG*eGeA*lG*e[5mC]*eAlA*eA*e[5mC]*lTeA*eG*lG*e[5mC]eA*l[5mC]*eT*eG)
  ABCB11 FC mRNA (5 μM ASO vs. untreated): 2.11 fold change

## CO-12745 (antisense eG*eT*eG*eA*eGeGe[5mC]*eA*eT*e[5mC]*eA*eG*eG*eTeAeA*eG*eT*eT*e[5mC])
  ABCB11 FC mRNA (5 μM ASO vs. untreated): 0.92 fold change

## CO-7000 (antisense eG*eT*lG*eA*eG*lG*e[5mC]*eA*lT*e[5mC]*eA*lG*eG*eT*lA*eA*eG*lT*eT*e[5mC])
  ABCB11 mRNA FC (5 μM ASO vs. UNT): 1.203 fold change

## CO-7048 (antisense eT*eG*eG*eA*eG*eT*eT*eG*eT*eG*eT*eT*eT*eT*eG*e[5mC]*eT*eT*eG*eG)
  ABCB11 mRNA FC (5 μM ASO vs. UNT): 1.175 fold change

## CO-11232 (antisense eG*eT*lGeG*eAlG*e[5mC]eA*lAeA*e[5mC]lT*eAeG*lGe[5mC]*eAl[5mC]*eT*eG)
  ABCB11 FC mRNA (5 μM ASO vs. untreated): 1.72 fold change

## CO-11237 (antisense eG*eTeGeGlAeGe[5mC]*eA*eA*lA*e[5mC]*eT*eA*eGlGe[5mC]eAe[5mC]eT*eG)
  ABCB11 FC mRNA (5 μM ASO vs. untreated): 1.56 fold change

## CO-7008 (antisense eG*eT*eG*eG*eA*lT*dG*dT*lA*dG*dA*dT*dG*lA*dA*dT*lG*eG*e[5mC]*eA*eA*eG)
  ABCB11 mRNA FC (5 μM ASO vs. UNT): 1.175 fold change

## CO-11215 (antisense eG*eT*lG*eGlA*eG*l[5mC]*eAlA*eA*l[5mC]*eTlA*eG*lG*e[5mC]lA*e[5mC]*eT*eG)
  ABCB11 FC mRNA (5 μM ASO vs. untreated): 2.68 fold change

## CO-4518 (antisense e[5mC]*eT*eA*e[5mC]*eT*eA*eG*eT*eT*eG*eT*eT*eA*e[5mC]*eA*e[5mC]*e[5mC]*eT*eT*eA)
  ABCB11 mRNA FC (5 μM ASO vs. UNT): 0.981 fold change

## CO-11225 (antisense eG*eTlGeGeAlGe[5mC]*eA*lA*eA*e[5mC]*lT*eA*eGlGe[5mC]eAl[5mC]eT*eG)
  ABCB11 FC mRNA (5 μM ASO vs. untreated): 1.66 fold change

## CO-4023 (antisense e[5mC]*eA*e[5mC]*eA*eA*e[5mC]*eA*eT*eT*eG*eT*eA*eT*eA*e[5mC]*eA*eA*eT*eA*e[5mC])
  ABCB11 mRNA FC (5 μM ASO vs. UNT): 1.092 fold change

## CO-4526 (antisense eG*e[5mC]*eT*eT*eG*eT*eG*eA*eT*eG*eT*e[5mC]*e[5mC]*eA*eG*eA*eT*eG*eA*e[5mC])
  ABCB11 mRNA FC (5 μM ASO vs. UNT): 1.048 fold change

## CO-4501 (antisense eG*e[5mC]*eA*eT*eG*eG*eT*eA*eG*e[5mC]*eT*eA*eG*eT*eG*eA*eT*eA*eA*eT)
  ABCB11 mRNA FC (5 μM ASO vs. UNT): 1.023 fold change

## CO-6979 (antisense eG*eT*eG*eA*eG*dG*d[5mC]*dA*dT*d[5mC]*dA*dG*dG*dT*dA*eA*eG*eT*eT*e[5mC])
  ABCB11 mRNA FC (5 μM ASO vs. UNT): 1.201 fold change

## CO-11228 (antisense eG*eT*lG*eG*eAlG*e[5mC]*eA*lAeA*e[5mC]*lT*eAeG*lG*e[5mC]*eAl[5mC]*eT*eG)
  ABCB11 FC mRNA (5 μM ASO vs. untreated): 1.99 fold change

## CO-11222 (antisense eG*eT*lG*eG*eAlGe[5mC]*eA*lA*eA*e[5mC]*lT*eA*eGlGe[5mC]*eA*l[5mC]*eT*eG)
  ABCB11 FC mRNA (5 μM ASO vs. untreated): 1.79 fold change

## CO-7181: derivative ASO with additional chemical modifications based on parent ASO CO-4529 (antisense eG*eT*eG*eG*lA*eG*e[5mC]*eA*lA*eA*e[5mC]*eT*lA*eG*eG*e[5mC]*lA*e[5mC]*eT*eG)
  ABCB11 mRNA FC (5 μM ASO vs. UNT): 1.603 fold change

## CO-7190: derivative ASO with additional chemical modifications based on parent ASO CO-4535 (antisense eT*eG*lG*e[5mC]*eG*lT*eT*eA*lT*eT*eA*lA*eT*eT*l[5mC]*eT*eA*l[5mC]*eA*eG)
  ABCB11 mRNA FC (5 μM ASO vs. UNT): 1.641 fold change

## CO-11241 (antisense eG*eTeG*eG*lA*eGe[5mC]*eA*eA*lAe[5mC]*eT*eA*eGlG*e[5mC]*eA*e[5mC]eT*eG)
  ABCB11 FC mRNA (5 μM ASO vs. untreated): 1.71 fold change

## CO-4497 (antisense eG*eG*eT*eG*eT*eT*eG*eA*eG*eA*eA*e[5mC]*eT*eA*eG*eA*eA*eT*eA*eT)
  ABCB11 mRNA FC (5 μM ASO vs. UNT): 1.024 fold change

## CO-4506 (antisense eT*eG*e[5mC]*eA*eT*eT*eG*e[5mC]*eA*eT*eG*eT*eT*eG*eA*eG*e[5mC]*eT*eG*eG)
  ABCB11 mRNA FC (5 μM ASO vs. UNT): 1.169 fold change

## CO-4043 (antisense eG*e[5mC]*e[5mC]*e[5mC]*eA*e[5mC]*eT*e[5mC]*eT*eG*e[5mC]*eT*e[5mC]*eA*eA*eT*eT*eT*eG*e[5mC])
  ABCB11 mRNA FC (5 μM ASO vs. UNT): 1.934 fold change

## CO-12749 (antisense eG*eT*eGeA*eG*eG*e[5mC]*eAeT*e[5mC]*eA*eG*eGeT*eA*eA*eG*eTeT*e[5mC])
  ABCB11 FC mRNA (5 μM ASO vs. untreated): 0.95 fold change

## CO-7196 (eG*eG*eT*eG*eG*eA*eG*e[5mC]*eA*eA*eA*e[5mC]*eT*eA*eG*eG*e[5mC]*eA*e[5mC]*eT*eG*eA; antisense)
  ABCB11 mRNA FC (5 μM ASO vs. UNT): 1.33 fold change

## CO-6988 (antisense eT*eG*eG*lA*eT*lG*eT*lA*eG*lA*eT*lG*eA*lA*eT*lG*eG*l[5mC]*eA*eA)
  ABCB11 mRNA FC (5 μM ASO vs. UNT): 1.093 fold change

From patent US20250320496A1, “MODULATION OF ABCB11 GENE TRANSCRIPTION USING ANTISENSE OLIGONUCLEOTIDES TARGETING REGULATORY RNAS” (CAMP4 Therapeutics Corporation, priority 2022, published 2025)
